For data set [1], the system named is restless legs syndrome patients. Particulars: in vivo; cited from earlier work.
Data set [2] has the same test system. The following applies: open clinical trials of opioids; cited from earlier work.
For data set [3] the test system is unchanged. Nature of the data set: Prior treatment history of the trial patients. As for the experimental part: See also, Stiasny K., Oertel W. H., Schuiler P. (1998). Cabergoline in RLS, ENS, Nice, Abstract.
Efficacy was assessed by polysomnography and subjective ratings. […] At study entry all patients were comedicated with domperidone (20 mg TID) and five were still under levodopa therapy (400-800 mg).
Subjects. Nine patients (seven women and two men, mean age 54.1±8.7, range 38.1-64.3 years) with idiopathic RLS for 23.1±13.7 years (range 5-47 years) participated. […] At study entry five patients were on levodopa with dosages ranging from 400-800 mg. […] The remaining four patients were off any specific RLS medication during baseline investigation. […] At baseline conditions the physician considered the patients to be extremely ill (2), very ill (4) or markedly ill (3).

The conditions of data set [4]: cited from earlier work.
Data set [5] relates to restless legs syndrome patients. The following applies: cited from earlier work.
Data set [6] has the same test system. Particulars: 7.5 mg, cited from earlier work.
Data set [7] has the same test system. The following applies: cited from earlier work. This is another data set of the same source.

Like-named read-outs stand apart in the source and are kept apart here. A value given as a limit tells only on which side of the number the result lay.

Here are results for 5 molecules from patent US6114326A, “Use of cabergoline in the treatment of restless legs syndrome” (priority 1999, dated 2000).

Regarding `NCC1(CC(=O)O)CCCCC1` [gabapentin], in data set [1], the possible side effects entry was “dizziness, sleepiness, fatigue, increased appetite, and unsteadiness”.

As for `C=CCN1CC[C@]23c4c5ccc(O)c4O[C@H]2C(=O)CC[C@@]3(O)[C@H]1C5` [naloxone], the “reversal by naloxone (in words)” value in data set [2] was “reversible”.

`N[C@@H](Cc1ccc(O)c(O)c1)C(=O)O` [L-dopa]: in data set [3] (all patients, standard or standard and slow release), the “benefit of previous levodopa therapy” value is “partial benefit”. In addition, the half-life in data set [4] (levodopa, regular release) was 2 to 4 h. Moreover, the “suppression of RLS (in words)” value in data set [5] (100 mg with carbidopa 10 mg, most cases) is recorded as “completely suppresses RLS”. Moreover, the “rebound (augmentation) of PLMS in last part of the night” value in data set [5] (100 mg with carbidopa 10 mg) is on record as “often observed”. Further, in data set [5] (12 week study, Callado-Seidel et al.), the rate of augmentation was 27%. The “patients with augmentation reporting 3 major symptoms of increased severity” value in data set [5] (22 RLS patients with augmentation) is given as 100%. Besides, in data set [5] (Allen and Earley, Sleep 1996), the “rate of augmentation in PLMS patients” value is on record as 31% and the “rate of augmentation in RLS patients” value is 82%. Further, the “RLS patients with augmentation requiring a medication change” value in data set [5] (Allen and Earley) is reported as 50%. The “patients who responded to levodopa” value in data set [5] (Earley and Allen) was 21 of 51. Besides, the “time until patients no longer respond well (tolerance)” value in data set [5] (L-Dopa or L-Dopa plus dopa-decarboxylase-inhibitor, usually) is at most 6 months. For the same molecule, the “patients reporting increased movement in other body parts” value in data set [5] (RLS patients with augmentation) is reported as 7%. For the same molecule, the “tolerance (in words)” value in data set [5] (RLS) was “common”. For the same molecule, the “reduction of RLS at bedtime and PLMS throughout the night (in words)” value in data set [5] (double-blind PSG study, administered twice at night) is given as “significant reduction”. Further, the “efficacy in RLS (in words)” value in data set [5] (with peripheral carboxylase inhibitor, 10:1 ratio) is listed as “effective”.

Regarding `CC(C)C[C@H]1C(=O)N2CCC[C@H]2[C@]2(O)O[C@](NC(=O)[C@@H]3C=C4c5cccc6[nH]c(Br)c(c56)C[C@H]4N(C)C3)(C(C)C)C(=O)N12` [Bromocriptine], the “side effect under prior treatment” value in data set [3] (bromocriptine 5 mg, one patient) was “severe arterial hypotension”. Besides, the “patients with subjective improvement in restlessness and paresthesia compared to placebo” value in data set [6] (1 to 3 hours prior to sleep, double blind crossover) is 5 of 6. The side effects entry in data set [6] (one patient) is “transient nasal stuffiness and lightheadedness”.

`CCCN1C[C@H](CSC)C[C@@H]2c3cccc4[nH]cc(c34)C[C@H]21` [Pergolide]: the half-life in data set [4] (pergolide) is 7 to 16 h. The “effect in patients who developed augmentation under levodopa” value in data set [7] (6 month open label trial) is recorded as “some effect”. In addition, in data set [7] (Earley and Allen), the “patients who responded well to pergolide” value is recorded as 19 of 26 and the “pergolide patients with augmentation” value is given as 4 of 26. In data set [7] (pergolide with low dose L-dopa), the side effects entry was “orthostatic hypotension and gastrointestinal problems”. In addition, the “patients suffering from augmentation” value in data set [7] (pergolide, Earley and Allen) was 15%. In addition, the “augmentation under pergolide (in words)” value in data set [7] (two open trials, follow-up 6 to 28 and 2 to 39 months) was “to a lower degree and less severe”. For the same molecule, in data set [7] (with low dose L-dopa, patients not responding to L-dopa alone), the “clinical improvement (in words)” value is on record as “clinical improvement”.

The term half-life denotes the time in which the quantity being followed falls by half.
